Laboratory results as given in US6071884A, “Pharmaceutical compositions and therapeutic methods” (Kirin Beer Kabushiki Kaisha, priority 1992, dated 2000).

Columns and labels:
[1] = tested on: mononuclear cell fraction of human umbilical cord blood; experiment: Proliferation-stimulating effect on mononuclear cell fraction of human umbilical cord blood (3H-TdR uptake); assay type: cell-based; conditions: 96 h, percentage of control, 4 days; for activity at 0.1 µg/mL: 10^-1 μg/ml; for activity at 0.01 µg/mL: 10^-2 μg/ml; for activity at 0.001 µg/mL: 10^-3 μg/ml
Excerpt: Pharmacological Test 3: Proliferation-Stimulating Effect on Mononuclear Cell Fraction of Human Umbilical Cord Blood
It is extremely difficult to obtain human marrow cells. In addition, human umbilical cord blood contains stem cells (Nakahata, T. & Ogwa, M., J. Clin. Inveet. 70, 1324-1328 (1982)), so that it can be a good source of hematopoietic stem/progenitor cell supply (H. E. Broxneyer et al, Proc. Natl. Acad. Sci. USA, 86, 3828-3832 (1989)). For these reasons, the effect on human was examined by using, instead of human marrow cells, human umbilical cord blood.
To human umbilical cord blood was added an equal amount of RPMI 1640. This was placed on a Lymphoprep and centrifugal. The mononuclear cell fraction (MNF) thus obtained was used in the following experiment.
(§1) The concentration of the MNF was adjusted to 1×10^6 cells/ml by using an RPMI 1640 added with 10% auto-blood plasma as a culture medium. 10 μl/well of a sample with a predetermined concentration and 100 μl/well of the above-prepared MNF were placed on a round-bottomed 96 well plate and incubated under the conditions of 37° C. and 5% CO2 for 4 days. Thereafter, 0.5 μCi/well of ^3 H-TdR was added. After 8 hour incubation, the cells were harvested, and the amount of the 3H-TdR taken in the nuclei was measured by a liquid scintillation counter.

blood platelets [2] = experiment: Thrombocytopenia-inhibiting effect in X-ray-irradiated mice; assay type: in vivo, mouse (BDF1); conditions: 10 days after 5 Gy X-ray; 0.1 mg/kg i.v. within 2 h; mean ± SD; vehicle per series 10.3, 6.8, 6.7; non-treatment 68.2, 96.9, 73.0
Method: Pharmacological Test 5: Thromboclytopenia-Inhibiting Effect
The thrombocytopenia-inhibiting effect of each sample upon an X-ray-irradiated mouser which is one of models with a decreased number of blood platelets was examined.
An experiment was carried out by using 6 week old female BDF1 mice purchased from Japan SLC Co., Ltd., with 6 mice made one group.
5 Gy of X ray was irradiated to the entire body of the mice by a Hitachi X-ray irradiator CMBR-1520R). Within 2 hours after the irradiation, each sample was administered to the caudal vein of the mice at an amount of 0.1 mg/kg.
(§2) After 10 days, blood was collected from the fundus vein of the mice, and the number of blood platelets was measured by a sequential multi-channel hemocytometer E-2500/cs (Toa Iyo Denshi Kabushiki Kaisha). The number of blood platelets of the non-treated group, that of the medium-administered group, and that of the sample-administered group are shown in Table 5.

blood platelets [3] = experiment: Blood-platelet-increasing effect upon normal mouse; assay type: in vivo, mouse (BDF1); conditions: normal mice; 6 days after 0.1 mg/kg i.v.; mean ± SD; vehicle per series 58.2, 63.0, 71.1
Method: Pharmacological Test 6: Blood-Platelet-Increasing Effect upon Mouse
An experiment was carried out by using 6 week old female BDF1 mice purchased from Japan SLC Co., Ltd., with 5 mice made one group.
as §2, with “Each sample was administered to the caudal vein of the mice at a dose of 0.1 mg/kg. After” for “After”, “6” for “10”, “vehicle-administered” for “non-treated group, that of the medium-administered”, “6.” for “5.”

[4] = tested on: marrow cells (mononuclear cell fraction); experiment: Proliferation-stimulating effect on marrow cell of mouse (3H-TdR uptake); assay type: cell-based, mouse (BALB/c); conditions: percentage of control, 72 h; for activity at 0.1 µg/mL: 10^-1 μg/ml; for activity at 0.01 µg/mL: 10^-2 μg/ml; for activity at 0.001 µg/mL: 10^-3 μg/ml; for activity at 1 µg/mL: 10^0 μg/ml
Method: Pharmacological Test 1: Proliferation-Stimulating Effect on Marrow Cell of Mouse
Marrow cells were prepared from the thigh bone of a 7 week old female BALB/c mouse purchased from Japan SLC Co., Ltd., and a mononuclear cell fraction (MNF) obtained by fractionation using a lympholyte-M (Cedar Lane, Ontario, Canada) was used in the following experiment.
as §1, with “to 1.5×10^6” for “to 1×10^6”, “using 10% FCS” for “using an”, “1640 (Nissui Pharmaceutical Co., Ltd., Tokyo, Japan)” for “1640 added with 10% auto-blood plasma”, “well plate,” for “well plate”, “for 72 hours.” for “for 4 days.”, “^3 H-thymidine (^3 H-TDR)” for “^3 H-TdR”

[5] = Life-span-increasing effect on irradiation of a lethal dose of radiation; assay type: in vivo, mouse (BDF1); conditions: 10 mice/group, 9 Gy X-ray, 0.1 mg/kg i.v. days 0, 4, 8
Method: Pharmacological Test 4: Life-Span-Increasing Effect on Irradiation of a Lethal Dose of Radiation
An experiment was carried out by using 6 week old female BDF1 mice purchased from Japan SLC Co., Ltd., with 10 mice made one group.
The entire bodies of the entire body of the mice were irradiated with 9 Gy of X-rays by using a Hitachi X-ray irradiator (MBR-1520R), and the day on which the X-ray was irradiated was referred to as "day 0".

[6] = day 10, controls per series 10, 10, 10, 10, 10, 8
[7] = day 15, controls per series 8, 9, 5, 5, 7, 1
[8] = day 20, controls per series 4, 5, 1, 2, 3, 0
[9] = day 25, controls per series 3, 3, 0, 0, 2, 0
[10] = day 30, controls per series 1, 1, 0, 0, 0, 0

CCCCCCCCCCCCCCCCCCCCCC[C@@H](O)C(=O)N[C@@H](CO[C@H]1O[C@H](CO)[C@H](O)[C@H](O)[C@H]1O)[C@H](O)CCCCCCCCCCCCCCC [Compound 14, (2S,3R)-1-(α-D-galactopyranosyloxy)-2-[(R)-2-hydroxytetracosanoylamino]-3-octadecanol]
activity at 0.1 µg/mL [1]: 233%
activity at 0.01 µg/mL [1]: 141%
activity at 0.001 µg/mL [1]: 96%
Number of Blood Platelets (blood platelets [2]): 22.3 ± 6.6 × 10^4 /μl
Number of Blood Platelets (blood platelets [3]): 101.6 ± 8.3 × 10^4 /μl
activity at 0.1 µg/mL [4]: 511%
activity at 0.01 µg/mL [4]: 132%
activity at 0.001 µg/mL [4]: 134%
Number of Surviving Mice [5, 6]: 10 mice
Number of Surviving Mice [5, 7]: 10 mice
Number of Surviving Mice [5, 8]: 10 mice
Number of Surviving Mice [5, 9]: 9 mice
Number of Surviving Mice [5, 10]: 9 mice
Number of Surviving Mice ([5]; day 35, all controls 0): 9 mice
Number of Surviving Mice ([5]; day 40, all controls 0): 9 mice

CCCCCCCCCCCCCCCCCCCCCCCC(=O)N[C@@H](CO[C@H]1O[C@H](CO)[C@H](O)[C@H](O)[C@H]1O)[C@H](O)[C@H](O)CCCCCCCCCCCCCC [Compound 16, (2S,3S,4R)-1-(α-D-galactopyranosyloxy)-2-tetracosanoylamino-3,4-octadecanediol]
activity at 0.1 µg/mL [1]: 311%
activity at 0.01 µg/mL [1]: 204%
activity at 0.001 µg/mL [1]: 216%
Number of Blood Platelets (blood platelets [2]): 21.1 ± 6.2 × 10^4 /μl
Number of Blood Platelets (blood platelets [3]): 114.7 ± 13.0 × 10^4 /μl
activity at 0.1 µg/mL [4]: 495%
activity at 0.01 µg/mL [4]: 152%
activity at 0.001 µg/mL [4]: 115%
Number of Surviving Mice [5, 6]: 10 mice
Number of Surviving Mice [5, 7]: 6 mice
Number of Surviving Mice [5, 8]: 6 mice
Number of Surviving Mice [5, 9]: 6 mice
Number of Surviving Mice [5, 10]: 6 mice
Number of Surviving Mice ([5]; day 35, all controls 0): 6 mice
Number of Surviving Mice ([5]; day 40, all controls 0): 6 mice

CCCCCCCCCCCCCCCCCCCCCCCC(=O)N[C@@H](CO[C@H]1O[C@H](CO)[C@H](O)[C@H](O)[C@H]1O)[C@H](O)[C@H](O)CCCCCCCCCCCCC [Compound 17, (2S,3S,4R)-1-(α-D-galactopyranosyloxy)-2-tetracosanoylamino-3,4-heptadecanediol]
activity at 0.1 µg/mL [1]: 318%
activity at 0.01 µg/mL [1]: 233%
activity at 0.001 µg/mL [1]: 98%
Number of Blood Platelets (blood platelets [2]): 18.5 ± 4.4 × 10^4 /μl
Number of Blood Platelets (blood platelets [3]): 92.1 ± 11.3 × 10^4 /μl
activity at 0.1 µg/mL [4]: 462%
activity at 0.01 µg/mL [4]: 149%
activity at 0.001 µg/mL [4]: 159%
Number of Surviving Mice [5, 6]: 10 mice
Number of Surviving Mice [5, 7]: 10 mice
Number of Surviving Mice [5, 8]: 9 mice
Number of Surviving Mice [5, 9]: 9 mice
Number of Surviving Mice [5, 10]: 9 mice
Number of Surviving Mice ([5]; day 35, all controls 0): 9 mice
Number of Surviving Mice ([5]; day 40, all controls 0): 9 mice

CCCCCCCCCCCCCCCCCCCCCCCC(=O)N[C@@H](CO[C@H]1O[C@H](CO)[C@H](O)[C@H](O)[C@H]1O)[C@H](O)[C@H](O)CCCCCCCCCCC [Compound 18, (2S,3S,4R)-1-(α-D-galactopyranosyloxy)-2-tetracosanoylamino-3,4-pentadecanediol]
activity at 0.1 µg/mL [1]: 298%
activity at 0.01 µg/mL [1]: 177%
activity at 0.001 µg/mL [1]: 135%
Number of Blood Platelets (blood platelets [2]): 24.3 ± 8.6 × 10^4 /μl
Number of Blood Platelets (blood platelets [3]): 111.7 ± 5.4 × 10^4 /μl
activity at 0.1 µg/mL [4]: 472%
activity at 0.01 µg/mL [4]: 124%
activity at 0.001 µg/mL [4]: 129%
Number of Surviving Mice [5, 6]: 10 mice
Number of Surviving Mice [5, 7]: 10 mice
Number of Surviving Mice [5, 8]: 8 mice
Number of Surviving Mice [5, 9]: 7 mice
Number of Surviving Mice [5, 10]: 7 mice
Number of Surviving Mice ([5]; day 35, all controls 0): 7 mice
Number of Surviving Mice ([5]; day 40, all controls 0): 7 mice

CCCCCCCCCCCCCCCCCCCCCCCCCC(=O)N[C@@H](CO[C@H]1O[C@H](CO)[C@H](O)[C@H](O)[C@H]1O)[C@H](O)[C@H](O)CCCCCCCCCCCCC [Compound 20, (2S,3S,4R)-1-(α-D-galactopyranosyloxy)-2-hexacosanoylamino-3,4-heptadecanediol]
activity at 0.1 µg/mL [1]: 692%
activity at 0.01 µg/mL [1]: 474%
activity at 0.001 µg/mL [1]: 507%
Number of Blood Platelets (blood platelets [2]): 19.8 ± 7.3 × 10^4 /μl
Number of Blood Platelets (blood platelets [3]): 110.9 ± 10.6 × 10^4 /μl
activity at 1 µg/mL [4]: 982%
activity at 0.1 µg/mL [4]: 466%
activity at 0.01 µg/mL [4]: 201%
activity at 0.001 µg/mL [4]: 67%
Number of Surviving Mice [5, 6]: 10 mice
Number of Surviving Mice [5, 7]: 8 mice
Number of Surviving Mice [5, 8]: 7 mice
Number of Surviving Mice [5, 9]: 7 mice
Number of Surviving Mice [5, 10]: 6 mice
Number of Surviving Mice ([5]; day 35, all controls 0): 6 mice
Number of Surviving Mice ([5]; day 40, all controls 0): 6 mice

CCCCCCCCCCCCCCCCCCCCCC[C@@H](O)C(=O)N[C@@H](CO[C@H]1O[C@H](CO)[C@H](O)[C@H](O)[C@H]1O)[C@H](O)[C@H](O)CCCCCCCCCCCCCC [Compound 21, (2S,3S,4R)-1-(α-D-galactopyranosyloxy) -2-[(R) -2-hydroxytetracosanoylamino]-3,4-octadecanediol]
activity at 0.1 µg/mL [1]: 552%
activity at 0.01 µg/mL [1]: 530%
activity at 0.001 µg/mL [1]: 305%
Number of Blood Platelets (blood platelets [2]): 22.7 ± 3.7 × 10^4 /μl
Number of Blood Platelets (blood platelets [3]): 94.8 ± 7.7 × 10^4 /μl
activity at 1 µg/mL [4]: 799%
activity at 0.1 µg/mL [4]: 244%
activity at 0.01 µg/mL [4]: 96%
activity at 0.001 µg/mL [4]: 84%
Number of Surviving Mice [5, 6]: 10 mice
Number of Surviving Mice [5, 7]: 10 mice
Number of Surviving Mice [5, 8]: 10 mice
Number of Surviving Mice [5, 9]: 10 mice
Number of Surviving Mice [5, 10]: 10 mice
Number of Surviving Mice ([5]; day 35, all controls 0): 10 mice
Number of Surviving Mice ([5]; day 40, all controls 0): 10 mice
